Measurements taken from patent US7202339B2, “Crystals of MarR polypeptides, regulators of multiple antibiotic resistance” (Trustees of Tufts College, priority 2001, dated 2007).

Columns and labels:
[1] = molecular target: T1, MarR (Escherichia coli, UniProt P27245); conditions: at millimolar concentrations; cited from earlier work
[2] = molecular target: T1, MarR; conditions: at millimolar concentrations; cited from earlier work; remark: listed apart in the source
[3] = molecular target: MarR, regulator of multiple antibiotic resistance of Escherichia coli (wild type, expressed from pMarR-WT) (Escherichia coli); assay: X-ray co-crystal structure of MarR dimer with salicylate

T1 sequence (P27245 whole entry): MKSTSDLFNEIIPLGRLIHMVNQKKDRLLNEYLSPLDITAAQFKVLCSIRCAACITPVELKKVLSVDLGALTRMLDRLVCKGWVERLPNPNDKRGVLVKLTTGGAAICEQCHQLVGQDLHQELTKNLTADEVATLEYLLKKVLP

Row | Compound | inhibition of MarR activity in vitro [1] | inhibition of MarR activity in whole cells [2] | buried surface area (N-/C-terminal hydrophobic core) [3] | total buried surface area [3]
1 | O=C([O-])c1ccccc1O.[Na+] [sodium salicylate] | inhibit MarR activity | inhibit MarR activity |  | 
2 | MarR, regulator of multiple antibiotic resistance of Escherichia coli (wild type, expressed from pMarR-WT) |  |  | 3570 Å^2 | 3700 Å^2
